US20120141601A1, “DIETARY SUPPLEMENT, FEED AND PHARMACEUTICAL COMPOSITION CONTAINING CHIA SEED AND MACA, AND PREPARATION METHOD THEREOF” (priority 2009, published 2012)

Columns and labels:
Type in all cases: in vivo, Sprague-Dawley male rats
[1] = Rotarod performance test for space perception and endurance
Method: (§1) Sprague-Dawley male rats (Orientbio) were divided into groups of six which were then administered for 26 days with neither alcohol nor the extracts for the normal group, with alcohol but not with extracts for the control group, with alcohol and 1% by weight octacosanol, with alcohol and 1% by weight chia seeds, with alcohol and 0.5% by weight maca, and with alcohol and a mixture of 1% by weight chia seeds and 0.5% by weight maca, respectively. Typical feedstuff was fed, together with water, to the normal group and, together with 25% alcohol, to the control group while the feedstuff for the other groups contained the test substances as described above.
The groups set in Test Example 3 were measured for space perception activity by the rotarod performance test which was conducted for 5 min for each rat with the cylinder (380×260×420 mm) of rotarod LE8300 (LETICA, SPAIN) rotating at a speed of 4 to 40 rpm. Cases in which the rats fell on the ground within 20 sec after starting were excluded from the measurement.
To investigate the effect of chia seeds and maca (extract), used as active ingredients in the composition of the present invention, on space perception and endurance, measurements of the rotarod performance test were analyzed. […] In contrast, the time was 98.16±11.35 sec for octacosanol-administered group, 151.50±5.08 sec for the chia seed-administered group, 215.33±13.14 sec for the maca-administered group and 240.66±39.30 sec for the group co-administered with chia seeds and maca, which were increased by 3, 5, 7, and 8 times, respectively, compared to the control group. As apparent from the data of the rotarod performance test, space perception and endurance were enhanced by octacosanol, chia seeds, maca, and a combination of chia seeds and maca, and most increased, inter alia, by the mixture of chia seeds and maca (FIG. 6, Table 2).

[2] = Locomotor activity, open field test
Method: as §1
The locomotor activities of the groups set in Test Example 3 were measured in an open field test chamber (38.0 cm×26.0 cm×42.0 cm; LETICA, SPAIN). Horizontal activity was recorded by an IR detector for 10 min To investigate the effects that chia seeds and maca (extract), used as active ingredients in the composition of the present invention, had on locomotor activity, measurements of the horizontal activity were analyzed. The horizontal activity was 1179.2±21.2 cm for the normal group, but […] for the control group, which was decreased by about 75% compared to the normal. […]

[3] = Endurance test, weighted swimming in bath
Method: as §1
A swimming experiment was conducted in a transparent acryl bath (with a dimension of length 80 cm×width 50 cm×depth 90 cm) ⅔ filled with water maintained at 24° C. The Sprague-Dawley male rats (Orientbio) were allowed to freely swim with a weight equivalent to 8˜10% of their body weight suspended from the abdomen thereof. Measurements were made of the time it took for the rat to swim to a point at which the head was submerged for 10 sec or longer below the water surface (Hong, S. G., J. Kor. Food Sci. Nutr. 32(7), 1076 (2003)).
To investigate the effects of chia seeds and maca (extract), used as active ingredients in the composition of the present invention, on endurance, measurements of the swing time were analyzed. The swimming time was measured to be 306.33±6.21 sec for the normal group, but 147.16±21.71 sec for the control group, which was equivalent to about 46% of that of the normal group. In contrast, 352.66±34.69 sec was measured for the octacosanol-administered group, 355.66±34.62 sec for the chia seed-administered group, 476.00±45.56 sec for the maca-administered group, and 527.83±25.57 sec for the group co-administered with chia seeds and mace, which were increased by 2.4, 2.4, 3.2 and 3.5 times, compared to the control group. […]

[4] = test system: aldehyde dehydrogenase; assay: Hepatic aldehyde dehydrogenase activity in liver homogenate; details: liver homogenate supernatant, absorbance at 340 nm; groups of Test Example 3
Method: as §1
(§2) In order to investigate the effect of the composition of the present invention on alcoholysis enzymes, the rats of the test groups set in Test Example 3 were anesthetized with chloroform and subjected to ventrotomy to excise the liver. The liver tissue was homogenized in 10 volumes of 100 mM sodium phosphate buffer, pH 7.4, using a homogenizer and then disrupted with an ultrasonicator. Centrifugation at 700 G for […] removed nuclei and cell debris. After centrifugation at 9,000 G for 20 min, the supernatant was measured for hepatic alcohol dehydrogenase and aldehyde dehydrogenase activity. The protein concentration of the supernatant was determined using a BCA kit and used to normalize the amount of liver tissue between test groups. […]

[5] = Blood alcohol concentration
Method: as §1
Blood alcohol concentrations were measured after the rats were administered 25% alcohol every day for 30 days. In this regard, blood samples were taken from the tail vein of the rats of the test groups set in Test Example 3 at 6 P.M. every five days, and blood alcohol concentrations were determined using an alcohol tester (Asia Commerce Co. Ltd., Model No. LION SD-400).
To investigate the effect of chia seeds and maca (extract), used as active ingredients in the composition of the present invention, on the degradation of blood alcohol, measurements of the blood alcohol concentration were analyzed. The blood alcohol concentration was 0% for the normal group and 0.06% for the control group. […]

[6] = test system: high-density lipoproteins; assay: High-density lipoprotein level in whole blood; details: 25% alcohol daily for 25 days, whole blood from the heart
Method: as §1
(§3) After the rats of the test groups set in Test Example 3 were administered with 25% alcohol every day for 25 days, blood samples were taken from the tail vein and measured for testosterone level using enzyme immunoassay (Roche, USA). The levels of testosterone and high-density lipoproteins in the whole blood taken from the heart were measured in Eone Reference Laboratory.
To investigate the effect of chia seeds and maca (extract), used as active ingredients in the composition of the present invention, on penile function, the levels of high-density lipoproteins were analyzed. […]

[7] = test system: alcohol dehydrogenase; assay: Hepatic alcohol dehydrogenase activity in liver homogenate; details: liver homogenate supernatant, absorbance at 340 nm; groups of Test Example 3
Method: as §1, §2

[8] = test system: testosterone; assay: Testosterone level in whole blood; details: 25% alcohol daily for 25 days, whole blood from the heart
Method: as §1, §3
To investigate the effect of chia seeds and maca (extract), used as active ingredients in the composition of the present invention, on testosterone activity, the levels of testosterone in whole blood were analyzed. […]

Which time on rotarod ([1]; Table 2, rotarod performance test) does the source give for `CCCCCCCCCCCCCCCCCCCCCCCCCCCCO` [octacosanol] here?
Its time on rotarod is 98.16 ± 11.35 s.

And the “time that the rats stayed on the rotating cylinder” value ([1]; rotarod 4 to 40 rpm, 5 min, groups of Test Example 3)?
Its value is 98.16 ± 11.35 s.

And the “increase of time on rotating cylinder compared to the control group” value ([1]; vs alcohol control group)?
Its value is 3 times.

What about the horizontal activity ([2]; open field, IR detector, 10 min, groups of Test Example 3) of the same compound?
The horizontal activity was 240.2±12.3 cm.

What about the “increase of horizontal activity compared to the control group” value ([2]; vs alcohol control group) of the same compound?
Its value is 8 times.

What about the swimming time ([3]; 26 days, alcohol plus 1% octacosanol, 1% chia seeds, 0.5% maca or 1% chia seeds + 0.5% maca in feed, weight 8-10% of body weight) of the same compound?
The swimming time was 352.66 ± 34.69 s.

And the “swimming time” value ([3]; Table 1, endurance test with swimming in bath)?
Its value is 352.66 ± 34.69 s.

And the “increase of swimming time compared to the control group” value ([3]; vs alcohol control group)?
The value was 2.4 times.

And the aldehyde dehydrogenase activity [4]?
Its aldehyde dehydrogenase activity is 9.8±1.4 mmole/min/mg protein.

What about the blood alcohol concentration ([5]; 25% alcohol daily for 30 days, tail vein blood, groups of Test Example 3) of the same compound?
Its blood alcohol concentration is 0.034%.

What about the “decrease of blood alcohol concentration compared to the control group” value ([5]; vs alcohol control group) of the same compound?
The value was 55%.

And the “level of high-density lipoproteins” value [6]?
The value was 32.5 ± 1.5 mg/dL.

And the alcohol dehydrogenase activity [7]?
The alcohol dehydrogenase activity was 8.9±0.8 mmole/min/mg protein.

And the “level of testosterone in whole blood” value [8]?
Its value is 195 ± 62.2 ng/dL.
